Assay: xn = mol fraction of the nth substance listed
Settings: 101 kPa

CCC[N+]1(C)CCCC1.N#C[N-]C#N + CCC[N+]1(C)CCCC1.O=S(=O)([N-]S(=O)(=O)C(F)(F)F)C(F)(F)F
Settings	electrical conductivity, 293.15 K [S/m]	electrical conductivity, 313.15 K [S/m]	electrical conductivity, 333.15 K [S/m]	viscosity, 293.15 K [mPa·s]	viscosity, 313.15 K [mPa·s]	viscosity, 333.15 K [mPa·s]	viscosity, 353.15 K [mPa·s]
x1 = 0.25	0.44	0.842	–	63.1	29.7	–	10.4
x1 = 0.5	0.733	1.34	2.16	51	25.3	14.8	9.58
x1 = 0.75	0.982	1.75	–	44.9	21.6	–	8.66
x1 = 1	1.57	2.67	4.44	–	18.6	11.7	7.95

CCC[N+]1(C)CCCC1.O=S(=O)([N-]S(=O)(=O)C(F)(F)F)C(F)(F)F + CCCC[N+]1(C)CCCC1.O=S(=O)([N-]S(=O)(=O)C(F)(F)F)C(F)(F)F
Settings	electrical conductivity, 293.15 K [S/m]	electrical conductivity, 313.15 K [S/m]	electrical conductivity, 333.15 K [S/m]	electrical conductivity, 353.15 K [S/m]	viscosity, 293.15 K [mPa·s]	viscosity, 313.15 K [mPa·s]	viscosity, 333.15 K [mPa·s]	viscosity, 353.15 K [mPa·s]
x2 = 0	0.32	0.678	–	1.76	–	34.4	–	11.6
x2 = 0.25	–	0.509	0.893	1.39	–	35.9	19.2	11.8
x2 = 0.5	0.298	0.61	1.03	–	87	37.9	20	–
x2 = 0.75	0.261	0.569	–	1.57	92	39.5	–	12.5

CCCCCC[N+]1(C)CCCC1.O=S(=O)([N-]S(=O)(=O)C(F)(F)F)C(F)(F)F + CCC[N+]1(C)CCCC1.O=S(=O)([N-]S(=O)(=O)C(F)(F)F)C(F)(F)F
Settings	electrical conductivity, 293.15 K [S/m]	electrical conductivity, 313.15 K [S/m]	electrical conductivity, 333.15 K [S/m]	electrical conductivity, 353.15 K [S/m]	viscosity, 293.15 K [mPa·s]	viscosity, 313.15 K [mPa·s]	viscosity, 333.15 K [mPa·s]	viscosity, 353.15 K [mPa·s]
x1 = 0.25	0.268	–	1.02	1.54	89	–	20.6	12.6
x1 = 0.5	0.185	0.417	0.766	–	102	42.9	22.2	–
x1 = 0.75	0.111	0.251	0.463	0.724	116	47.3	23.8	13.9
x1 = 1	0.118	0.272	0.525	0.86	–	52.7	25.9	14.9

CCCC[N+]1(C)CCCC1.O=S(=O)([N-]S(=O)(=O)C(F)(F)F)C(F)(F)F + CCC[N+]1(C)CCCC1.O=S(=O)([N-]S(=O)(=O)C(F)(F)F)C(F)(F)F
x1 = 1
Settings	electrical conductivity [S/m]	viscosity [mPa·s]
293.15 K	0.222	–
313.15 K	0.471	42
333.15 K	0.827	21.7
353.15 K	1.23	12.9

CC[n+]1ccn(C)c1.O=S(=O)([N-]S(=O)(=O)C(F)(F)F)C(F)(F)F + CCC[N+]1(C)CCCC1.O=S(=O)([N-]S(=O)(=O)C(F)(F)F)C(F)(F)F
x1 = 1
Settings	electrical conductivity [S/m]	viscosity [mPa·s]
293.15 K	0.752	–
313.15 K	1.35	19.9
333.15 K	2.1	12
353.15 K	3.05	7.97

CCCCCCCCCCCCCC[P+](CCCCCC)(CCCCCC)CCCCCC.O=S(=O)([N-]S(=O)(=O)C(F)(F)F)C(F)(F)F + CCC[N+]1(C)CCCC1.O=S(=O)([N-]S(=O)(=O)C(F)(F)F)C(F)(F)F
x1 = 1
Settings	electrical conductivity [S/m]	viscosity [mPa·s]
293.15 K	0.0072	–
313.15 K	0.0216	150
333.15 K	0.0473	63
353.15 K	0.0913	31.1

CCC[N+]1(C)CCCC1.O=S(=O)([N-]S(=O)(=O)C(F)(F)F)C(F)(F)F + CCC[N+]1(C)CCCC1.N#C[N-]C#N
x2 = 0
Settings	electrical conductivity [S/m]	viscosity [mPa·s]
293.15 K	0.32	–
333.15 K	1.18	18.8

CCC[N+]1(C)CCCC1.O=S(=O)([N-]S(=O)(=O)C(F)(F)F)C(F)(F)F + CCCCCCCCCCCCCC[P+](CCCCCC)(CCCCCC)CCCCCC.O=S(=O)([N-]S(=O)(=O)C(F)(F)F)C(F)(F)F
Settings	electrical conductivity, 293.15 K [S/m]	electrical conductivity, 313.15 K [S/m]	electrical conductivity, 333.15 K [S/m]	electrical conductivity, 353.15 K [S/m]	viscosity, 293.15 K [mPa·s]	viscosity, 313.15 K [mPa·s]	viscosity, 333.15 K [mPa·s]	viscosity, 353.15 K [mPa·s]
x2 = 0	0.32	0.678	1.18	1.76	–	34.5	18.8	11.6
x2 = 0.5	0.0216	0.0565	0.12	0.223	322	117	51.8	26.7
x2 = 0.75	0.0113	–	0.0688	0.146	368	–	61.9	29.2

CCC[N+]1(C)CCCC1.O=S(=O)([N-]S(=O)(=O)C(F)(F)F)C(F)(F)F + CC[n+]1ccn(C)c1.O=S(=O)([N-]S(=O)(=O)C(F)(F)F)C(F)(F)F
Settings	electrical conductivity, 293.15 K [S/m]	electrical conductivity, 313.15 K [S/m]	electrical conductivity, 333.15 K [S/m]	electrical conductivity, 353.15 K [S/m]	viscosity, 293.15 K [mPa·s]	viscosity, 313.15 K [mPa·s]	viscosity, 333.15 K [mPa·s]	viscosity, 353.15 K [mPa·s]
x2 = 0	0.32	0.678	–	–	–	34.4	–	–
x2 = 0.25	0.408	0.801	1.34	2	63.6	29.4	16.6	10.5
x2 = 0.5	–	0.985	1.62	2.37	–	25.8	14.9	9.57
x2 = 0.75	0.633	1.16	1.85	2.66	45	22.6	13.3	8.77

CCC[N+]1(C)CCCC1.O=S(=O)([N-]S(=O)(=O)C(F)(F)F)C(F)(F)F + CCCCCC[N+]1(C)CCCC1.O=S(=O)([N-]S(=O)(=O)C(F)(F)F)C(F)(F)F
x2 = 0
Settings	electrical conductivity [S/m]	viscosity [mPa·s]
293.15 K	0.32	–
313.15 K	0.678	34.4
333.15 K	1.18	18.8

From a compilation of properties of binary mixtures (doi:10.1021/jp3012602)
